Experimental data: patent US20260374752A1, “COMPOUNDS, COMPOSITIONS, AND METHODS” (Tenvie Therapeutics, Inc., priority 2023, published 2026)
Where two headings read alike, the source gives them in different places.

Target: T1, (Homo sapiens, UniProt Q96P20)
T1 construct: IL-1β ELISA of supernatant
Assay: IL-1β secretion assay in THP-1 cells (PMA differentiated, LPS and nigericin stimulated; ELISA)
Format: cell-based
Method: Biochemical Assay of the Compounds
Procedure for Culturing THP-1 Cells
Compounds as provided herein were tested in the following assay. Cell culture medium employed contained RPMI 1640 medium (89%), FBS (10%), Pen/Strep (1%), and 2-mercaptoethanol (0.05 mM). Freezing medium was made up of 90% FBS and 10% DMSO. THP-1 cells were removed from the liquid nitrogen and placed into a 37 °C water bath to thaw, until signs of ice dissipated. The cells were then added to 9 mL of warm cell culture medium and centrifuged for 5 minutes at 1000 rpm. The supernatant was discarded, and the cells were resuspended in new cell culture medium. THP-1 cells were then split and cultured in the cell culture medium, being passaged every 2-3 days with the cell density will be maintained between 5×10^5 and 1.5×10^6 viable cells/mL.
To freeze, cells were resuspended with fresh freezing medium, adjusting the cell density to 5×10^6 cells/mL. The cell suspension was partitioned into 1 mL aliquots per vial, and the vials were transferred to a −80 °C freezer. After one day at −80 °C, the cell vials were transferred to liquid nitrogen freezer for storage.
Procedure for IL-Iβ Secretion Assay in 384-Well Plates
PMA was dissolved in DMSO to make a stock solution at 5 mg/ml and stored in 10 μl aliquots at −20 °C for single use. PMA is added to normal growth medium. LPS was diluted with 1 mL of water solution to provide a 1 mg/mL stock solution and stored in 15 μL aliquots at −20 °C for single use. Nigericin is diluted in ice cold 100% ethanol to 5 mg/ml (6.7 mM) and stored in 75 μL aliquots at −20 °C for single use. Serum-free media contains RPMI 1640 medium (99%), Pen/Strep (1%), and 2-mercaptoethanol (0.05 mM). The two control conditions used to qualify and normalize test compound dose-response curves were as follows: High Control=25 ng/mL LPS, 5 μM Nigericin, 0.5% DMSO, Low Control=25 ng/ml, LPS, 0.5% DMSO.
Day 1: Differentiation with PMA
THP-1 cells were diluted to provide a suspension at a concentration of 1.0×10^6 cells/mL with the total volume of suspension required to enable the desired number of assay plates. The growth media was supplemented with PMA (5 ng/mL final concentration) and the cells were incubated at 37 °C under a humidified atmosphere of 5% CO2 for 40 h.
Day 3: Plating with Sequential LPS and Nigericin Stimulation
All media was carefully aspirated from each culture flask. The cells were washed carefully with 1× DPBS. The cells were then briefly digested with trypsin LE for 5 minutes at 23 °C and immediately resuspended in cell growth media. After resuspension, the cells were centrifuged at 1000 rpm for 3 minutes and the supernatant was discarded. The cells were resuspended in DPBS and once again centrifuged at 1000 rpm for 5 minutes. The supernatant was discarded and the cell pellet was resuspended in serum-free media supplemented with LPS (25 ng/mL final concentration) to enable the distribution of 30K THP-1 cells within 45 μL of media into each well of 384-well PDL-coated plates. The 384-well plates were then incubated at 37 °C under a humidified atmosphere of 5% CO2 for 2 h. Following this period, test compounds were dispensed by Tecan across the desired concentration range with all wells normalized to a final 0.5% DMSO concentration. The plates were then then incubated at 37 °C under a humidified atmosphere of 5% CO2 for 1 h. Following this period, 5 μL of the […] nigericin stock solution was added to each of the appropriate wells and plates were centrifuged at 1000 rpm for 30 seconds. The plates were the immediately reintroduced to the incubator at 37 °C under a humidified atmosphere of 5% CO2 for 2 h. After this time, 35 μL/well of supernatant was collected and transferred into v-bottom plate and centrifuged at 1000 rpm for 1 minute. These supernatant aliquots were analyzed using an IL-Iβ detection kit as described below. If needed, the test samples could be snap frozen and stored at −80 °C until analyzed. […]

[1] = inhibition of IL-1β secretion, 25 ng/mL LPS, 5 μM Nigericin, 0.5% DMSO, read-out: Activity (IC50)
[2] = inhibition of IL-1β secretion, 25 ng/mL LPS, 5 μM Nigericin, 0.5% DMSO, read-out: Activity (IC50 class)

T1 sequence (Q96P20 whole entry): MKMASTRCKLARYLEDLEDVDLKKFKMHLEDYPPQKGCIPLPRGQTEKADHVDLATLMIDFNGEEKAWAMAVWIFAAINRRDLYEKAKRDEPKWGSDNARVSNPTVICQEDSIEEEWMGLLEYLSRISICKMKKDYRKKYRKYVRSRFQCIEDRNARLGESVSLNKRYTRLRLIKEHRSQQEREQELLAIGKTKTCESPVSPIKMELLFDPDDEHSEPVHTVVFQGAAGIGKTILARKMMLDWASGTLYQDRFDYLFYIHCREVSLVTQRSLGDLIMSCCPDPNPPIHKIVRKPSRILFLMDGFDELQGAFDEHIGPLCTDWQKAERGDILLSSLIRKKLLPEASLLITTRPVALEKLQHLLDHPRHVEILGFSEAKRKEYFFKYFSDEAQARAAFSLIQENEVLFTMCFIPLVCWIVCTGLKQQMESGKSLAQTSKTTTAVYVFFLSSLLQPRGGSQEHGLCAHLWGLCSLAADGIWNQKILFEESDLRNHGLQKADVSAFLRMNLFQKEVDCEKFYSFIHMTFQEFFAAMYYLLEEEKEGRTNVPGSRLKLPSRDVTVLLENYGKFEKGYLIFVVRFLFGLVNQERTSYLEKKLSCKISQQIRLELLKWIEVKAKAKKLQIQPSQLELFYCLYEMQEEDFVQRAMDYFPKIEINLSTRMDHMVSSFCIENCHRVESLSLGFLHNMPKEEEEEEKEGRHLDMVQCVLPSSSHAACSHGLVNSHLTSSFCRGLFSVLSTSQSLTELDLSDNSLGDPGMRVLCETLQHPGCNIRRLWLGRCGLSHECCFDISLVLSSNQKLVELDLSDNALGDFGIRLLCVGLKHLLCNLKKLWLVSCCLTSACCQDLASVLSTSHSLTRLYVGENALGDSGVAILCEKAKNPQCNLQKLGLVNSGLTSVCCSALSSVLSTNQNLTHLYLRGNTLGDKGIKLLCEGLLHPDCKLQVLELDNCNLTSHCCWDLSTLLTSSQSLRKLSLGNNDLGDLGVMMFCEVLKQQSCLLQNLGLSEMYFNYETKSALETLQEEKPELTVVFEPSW

Row | SMILES | IC50 [1] [nM] | IC50 [2] [nM] | IC50 (read-out: Activity (IC50), inhibition of IL-1β secretion, 25 ng/mL LPS, 5 μM Nigericin, 0.5% DMSO) [nM] | IC50 (read-out: Activity (IC50 class), inhibition of IL-1β secretion, 25 ng/mL LPS, 5 μM Nigericin, 0.5% DMSO) [nM]
1 | O=C(CN1C(=O)c2ccc(Br)cc2[C@@H]2C[C@@H]21)Nc1ncc(F)cn1 (relative stereo) [compound 5, 2-(cis-6-bromo-3-oxo-1a,7b-dihydro-1H-cyclopropa[c]isoquinolin-2-yl)-N-(5-fluoropyrimidin-2-yl) acetamide] | 800 | < 1000 |  | 
2 | O=C(CN1C(=O)c2ccc(Br)cc2[C@@H]2CC[C@@H]21)Nc1ncc(F)cn1 (relative stereo) [compound 4, 2-(cis-7-bromo-4-oxo-1,2,2a,8b-tetrahydrocyclobuta[c]isoquinolin-3-yl)-N-(5-fluoropyrimidin-2-yl) acetamide] | 240 | < 1000 |  | 
3 | O=C(CN1C(=O)c2ccc(Br)cc2[C@@H]2CCC[C@@H]21)Nc1ncc(F)cn1 (relative stereo) [compound 1, 2-(cis-8-bromo-5-oxo-2,3,3a,9b-tetrahydro-1H-cyclopenta[c]isoquinolin-4-yl)-N-(5-fluoropyrimidin-2-yl) acetamide] |  |  | 700 | < 1000

Other lines, results leading:

Row | IC50 [1] [nM] | IC50 [2] [nM] | IC50 (read-out: Activity (IC50), inhibition of IL-1β secretion, 25 ng/mL LPS, 5 μM Nigericin, 0.5% DMSO) [nM] | IC50 (read-out: Activity (IC50 class), inhibition of IL-1β secretion, 25 ng/mL LPS, 5 μM Nigericin, 0.5% DMSO) [nM] | SMILES
4 | 270 | < 1000 |  |  | O=C(CN1C(=O)c2ccc(Br)cc2[C@]2(C(F)(F)F)C[C@H]12)Nc1ncc(F)cn1 (single isomer, unassigned) [compound 2, 2-[trans-6-bromo-3-oxo-7b-(trifluoromethyl)-1,1a-dihydrocyclopropa[c]isoquinolin-2-yl]-N-(5-fluoropyrimidin-2-yl) acetamide]
5 | 9500 | 1000 to 10000 |  |  | O=C(CN1C(=O)c2ccc(Br)cc2[C@]2(C(F)(F)F)C[C@H]12)Nc1ncc(F)cn1 (single isomer, unassigned) [compound 3, 2-[trans-6-bromo-3-oxo-7b-(trifluoromethyl)-1,1a-dihydrocyclopropa[c]isoquinolin-2-yl]-N-(5-fluoropyrimidin-2-yl) acetamide]
